# Measured values as given in patent US6518014B1, “Hepadnavirus cores” (priority 1996, dated 2003).
# *1 amine or outer side, *2 acyl side, *3 side chain or, on linkers, in order; H or OH if unused. Where a SMILES comes first, the peptide text is derived from it. Bridges are numbered along the chain shown (N, C = ends). Roman numbers before positions name the chains, in order. [ ]: non-standard residue; d: D form. Actinocin(9to1) = Cc1c2oc3c(C)ccc(C(=O)[*:1])c3nc-2c(C(=O)[*:2])c(N)c1=O; NMeV = CN[C@H](C(=O)O)C(C)C; Sar = CNCC(=O)O
# Experiments:
# hepadnavirus polymerase [1] = target: T1, hepadnavirus polymerase (Hepatitis B virus genotype D subtype ayw, UniProt P03156); test: In vitro polymerase activity of isolated core particles in the presence of Actinomycin D; type: biochemical; conditions: 100 μg/ml Actinomycin D; (−) strand synthesis from an RNA template
# T1 construct: made in house; host or cells: Spodoptera frugiperda SF9 cells infected with recombinant baculoviruses (pVL1393-derived)
# Description: This observation further confirms that the primary activity observed is the (−) strand synthesis from an RNA template. Site-directed mutagenesis has been used to change an tyr-met-asp-asp (SEQ ID NO:16) sequence in the HBV polymerase active site to a tyr-met-his-ala (SEQ ID NO:17) sequence, a mutation that has been previously shown to destroy polymerase activity. See, for example, Seifer and Strandring, Intervirology 38:295-303,1995; Wang & Seeger, Cell 71:663-670, 1992. For an analogous active site mutation, see Radziwill et al., J. Virol. 64:613-620,1990. When this mutant is used in the methods of the invention to create core particles, the core particles lack polymerase activity. This observation confirms that it is indeed hepadnavirus polymerase activity that is being observed in the core particles of the invention.
# A 96 well plate was prepared with wells containing either various dilutions of test sample containing a prospective bioactive agent, a positive control, a known hepadnavirus polymerase inhibitor, or an EDTA sample for which no polymerase activity should be detected and which thus indicates, after the assay processing, non-specific, background radioactivity. The plate has eight rows of wells, A through H, and twelve columns of wells, 1 through 12. […]
# The background radioactivity determined from column 12, wells E through H, was subtracted from all of the remaining values. […]
# hepadnavirus polymerase [2] = target: T1, hepadnavirus polymerase; test: Endogenous polymerase assay (EPA) with size analysis of endogenously labeled DNA from nucleocapsids, actinomycin D comparative sample; type: biochemical; conditions: 80-100 μg per ml actinomycin D in comparative sample
# Description: The beads were resuspended in 50 μl EPA reaction mix (50 mM Tris-HCl, pH 7.4, 75 mM NH4Cl, 1 mM EDTA, 20 mM MgCl2, 0.1 mM β-mercaptoethanol, 0.5% Tween 20, 50 μM dNTP mix (Ultrapure, Pharmacia, Uppsala, Sweden)), and the resulting suspension was incubated at 37° C. for 6 h.
# The beads were washed once with 800 μl IP wash buffer (50 mM Tris-HCl, pH 7.4, 150 mM NaCl, 5 mM EDTA, 1% Triton-X 100, 0.02% SDS) and resuspended in 50 μl TNE (10 mM Tris-HCl, pH 7.4, 150 mM NaCl, 1 mM EDTA) containing 1% SDS and 10 mM dithiothreitol. The beads were then heated to boiling temperature (100 C) for 7 min to disintegrate the capsids, and the supernates isolated by centrifugation and transferred to microfuge cups, with the supemates from […] parallel reactions combined in each microfuge cup. […]
# The synthesis that is actinomycin D sensitive is measured with the above-described EPA assay where 80-100 μg per ml of actinomycin D are added in a comparative sample.
# SF9 cells were harvested 90 hours postinfection with recombinant viruses (a) BV-ECPE, (b) BV-EC+BV-PDE, (c) BV-EC and (d) BV-PDE. […] Immunoprecipitated core particles were subjected to EPA as described above, and deproteinized nucleic acids isolated from the assay samples were analyzed on a 1% agarose gel, and visualized by autoradiography. […]
# T1 sequence (P03156 whole entry): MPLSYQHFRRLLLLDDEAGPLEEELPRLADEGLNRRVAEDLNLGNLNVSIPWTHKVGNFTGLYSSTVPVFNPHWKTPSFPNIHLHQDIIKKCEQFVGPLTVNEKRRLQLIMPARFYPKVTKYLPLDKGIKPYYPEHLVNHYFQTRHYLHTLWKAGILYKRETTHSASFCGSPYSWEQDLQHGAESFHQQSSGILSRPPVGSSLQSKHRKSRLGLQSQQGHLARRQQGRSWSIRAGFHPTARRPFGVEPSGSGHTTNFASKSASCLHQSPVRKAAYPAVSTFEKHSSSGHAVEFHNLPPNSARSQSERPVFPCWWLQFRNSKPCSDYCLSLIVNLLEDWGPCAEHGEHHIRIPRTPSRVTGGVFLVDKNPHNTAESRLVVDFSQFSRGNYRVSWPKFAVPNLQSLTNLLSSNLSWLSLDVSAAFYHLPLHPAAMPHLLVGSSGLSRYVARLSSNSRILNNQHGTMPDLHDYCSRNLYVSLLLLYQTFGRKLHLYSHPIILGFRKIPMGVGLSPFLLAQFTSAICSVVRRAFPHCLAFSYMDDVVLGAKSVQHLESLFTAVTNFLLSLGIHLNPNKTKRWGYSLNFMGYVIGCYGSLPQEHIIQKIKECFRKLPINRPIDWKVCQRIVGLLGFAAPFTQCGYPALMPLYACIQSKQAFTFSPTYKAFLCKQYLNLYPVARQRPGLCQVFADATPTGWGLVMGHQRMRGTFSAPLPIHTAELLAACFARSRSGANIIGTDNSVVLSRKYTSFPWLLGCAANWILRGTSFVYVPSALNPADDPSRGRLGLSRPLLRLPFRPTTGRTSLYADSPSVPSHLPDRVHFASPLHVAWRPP
structure (smiles),measurement,setting,value
"Cc1c2oc3c(C)ccc(C(=O)N[C@@H]4C(=O)N[C@H](C(C)C)C(=O)N5CCC[C@H]5C(=O)N(C)CC(=O)N(C)[C@@H](C(C)C)C(=O)O[C@@H]4C)c3nc-2c(C(=O)N[C@@H]2C(=O)N[C@H](C(C)C)C(=O)N3CCC[C@H]3C(=O)N(C)CC(=O)N(C)[C@@H](C(C)C)C(=O)O[C@@H]2C)c(N)c1=O [Actinomycin D] (I: T[dV]P[Sar][NMeV] / II: T[dV]P[Sar][NMeV]; ester I:1-I:C, II:1-II:C; linker I:N-II:N via Actinocin(9to1))",polymerase activity exhibited by core particles in the presence of Actinomycin D,hepadnavirus polymerase [1],active
same,"actinomycin D sensitivity of EPA product nucleic acids, trans cores",hepadnavirus polymerase [2]; BV-EC+BV-PDE (trans) cores from SF9 cells,not the trans products
same,"actinomycin D sensitivity of EPA product nucleic acids, cis cores",hepadnavirus polymerase [2]; BV-ECPE (cis) cores from SF9 cells,mostly actinomycin D sensitive
